Experimental data: patent US20060235062A1, “Novel heterocyclic analogs of diphenylethylene compounds” (THERACOS, INC., priority 2002, published 2006)

What was measured:
Human PPAR-γ2 = target: T1, Human PPAR-γ2 (Homo sapiens, UniProt P37231); assay: PPAR-gamma mediated transactivation of PPRE-luciferase reporter; assay type: cell-based; conditions: for EC50: cells transfected with human PPAR-gamma2, 24 hours, non-linear regression, read-out: EC50, induction of PPAR-γ mediated luciferase activity
T1 construct: inserting the PPARγ2 cDNA coding region into pcDNA3.1+ vector; expressed in transfected cells; host or cells: HEK293 cells (ATCC)
T1 sequence (P37231 1-505): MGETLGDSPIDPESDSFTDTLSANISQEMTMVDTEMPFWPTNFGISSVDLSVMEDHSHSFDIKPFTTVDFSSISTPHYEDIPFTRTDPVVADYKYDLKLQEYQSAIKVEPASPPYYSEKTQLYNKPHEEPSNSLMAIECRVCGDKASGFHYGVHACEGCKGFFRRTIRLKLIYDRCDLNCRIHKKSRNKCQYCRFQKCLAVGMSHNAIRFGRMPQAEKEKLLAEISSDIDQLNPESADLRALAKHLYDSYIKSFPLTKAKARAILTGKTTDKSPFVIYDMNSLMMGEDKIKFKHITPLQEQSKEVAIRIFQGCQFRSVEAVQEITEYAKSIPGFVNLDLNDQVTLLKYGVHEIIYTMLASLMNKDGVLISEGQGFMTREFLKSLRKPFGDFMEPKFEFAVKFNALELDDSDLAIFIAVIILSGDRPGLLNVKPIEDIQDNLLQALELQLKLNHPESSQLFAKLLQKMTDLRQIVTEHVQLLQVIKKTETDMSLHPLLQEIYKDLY
Experimental: Human PPAR-γ2 expression vector was constructed by inserting PPAR-γ2 encoding region into pcDNA3.1+ vector (Invitrogen, Carlsbad, Calif.). Luciferase reporter vector was constructed by ligating PPRE response element adjacent to the upstream of Firefly luciferase coding region. Control vector, pRL-SV40 expressing Renilla luciferase was purchased from Promega (Madison, Wis.).
About 2.7×10^4 293 cells (ATCC, Manassas, Va.) were plated into a 35 mm culture well and maintained in Eagle's Minimal Essential Medium (ATCC, Manassas, Va.) supplemented with 10% heat inactivated horse serum (ATCC, Manassas, Va.) for 24 hours. Expression, reporter and control vectors (2.5 ng control and 100 ng others per culture well) were transfected by LI[…]™ Reagent (Invitrogen, Carlsbad, Calif.). Transfection reagent and DNA were prepared according to manufacture's recommendations and incubated with cells for 3 hours followed by adding equal volume EMEM supplemented with 20% horse serum. Twenty-four hours after transfection, cells were treated with vehicle or compounds at indicated final concentration for 24 hours. Final concentration of vehicle was 0.001% DMSO (Sigma, ST Louis, Mo.) in medium. Vehicle and compound treatment were all conducted in triplicate. Each culture well was then assayed for a response characterized by increased Firefly luciferase activity normalized with Renilla luciferase activity.
Assays for Firefly luciferase activity and Renilla luciferase activity followed the standard protocol of Dual-luciferase Reporter® Assay System (Promega, Madison, Wis.). Briefly, 400 μl Passive Lysis Buffer was added into each culture well and all wells were placed on a shaker for 15 minutes. Five μl cell lysate of each well was added to a reaction tube. Luciferase reagent II and Stop & Glo® were injected into the reaction tube sequentially by Sirius Luminometer (Berthold Detection Systems, Pforzheim, Germany). Final reporter activity was calculated as the ratio of Firefly luciferase activity over by Renilla luciferase activity.
Human PPARγ2 expression vector was constructed by inserting the PPARγ2 cDNA coding region into pcDNA3.1+ vector (Invitrogen, Carlsbad, Calif.). The PPRE-luciferase reporter gene was the kind gift of Dr. Kenneth Feingold. The control vector, pRL-SV40 containing the Renilla luciferase cDNA was purchased from Promega (Madison, Wis.). About 2.7×10^4 HEK293 human embryonal kidney cells (ATCC) were plated into a 35-mm tissue culture dish and maintained in Eagle Modified Essential Medium (EMEM, ATCC) containing 10% heat-inactivated horse serum for 24 h. Expression, reporter (100 ng/dish) and control (2.5 ng/dish) vectors were transfected using LI[…]™ Reagent (GibcoBRL) according to manufacturer's recommendation. At 24 h after transfection, cells were treated with vehicle (0.001% DMSO in medium) or compounds at the indicated concentration and incubated for 24 h. Each treatment was conducted in triplicate. Each culture dish was assayed for firefly luciferase activity normalized by Renilla luciferase activity to account for differences in transfection efficiency. Luciferase activity was measured using the Dual-luciferase Reporter® Assay System (Promega) and a Sirius luminometer (Berthold Detection System, Pforzheim, Germany).

3T3-L1 adipocytes = assay: Glucose uptake in differentiated 3T3-L1 adipocytes; assay type: cell-based; conditions: for % Glucose uptake 0.1 μm / % Glucose uptake 1.0 μm: average of quadruplicate ± SD
Experimental: Referring to FIG. 8 glucose uptake in 3T3-L1 differentiated adipocytes was measured after treatment with the test compound. The assay was conducted according to the method of Tafuri, Endocrinology, 137, 4706-4712 (1996). The serum-starved cells were treated with the test compound for 48 hours at different concentrations, then washed and incubated in glucose-free media for 30 minutes at 37° C. Then ^14C-deoxyglucose was added and uptake was monitored for 30 minutes under incubation. After washing, the cells were lysed (0.1% SIDS) and counted.
Basal glucose uptake was measured in differentiated 3T3-L1 adipocytes following the protocol of Tafuri (6) with modifications. Briefly, 3T3-L1 fibroblasts, obtained from ATCC (Manassas, Va.), were differentiated to adipocytes by treating cells with porcine insulin (1 μg/ml for 4 days), dexamethasone (0.25 μM for first 2 days) and isobutyl methyl xanthine (IBMX, 0.5 mM for first 2 days) (all from Sigma Chemicals, St Louis, Mo.) following the protocol of Frost and Lane (7). Differentiated adipocytes were incubated in Dulbecco's Modified Eagle Medium (DMEM) containing 10% fetal bovine serum (GibcoBRL, Gaithersburg, Md.) with various concentrations of Compound 11 or vehicle (0.1% DMSO) for 48 h in 24-well plates, in triplicate. Cells were washed with phosphate buffered saline (PBS, 150 mM NaCl, 1 mM KH2PO4, 3 mM Na2HPO4; pH 7.4) and incubated in glucose-free DMEM for 2 h at 37° C. The cells were washed 3 times with Krebs Ringer Phosphate Buffer (KRP). Glucose uptake was initiated by addition of 0.25 μCi 2-^14C(U)-deoxy-D-glucose (300 μCi/mmol, American Radiolabeled Chemicals Inc., St Louis, Mo.) per well and the cells incubated for 10 min at room temperature in the presence of 0.1 mmol cold 2-deoxy-D-glucose. Finally, the cells were washed three times with ice-cold PBS containing 10 mM cold glucose, lysed with 0.5% SDS, and counted in a scintillation counter (Beckman LS6500).

AIA rats = assay: Cancellous bone loss in adjuvant induced arthritic (AIA) rats, MicroCT of right proximal tibia; assay type: in vivo, male Lewis rats
NF-kB p65 = NF-kB p65 activation in LPS-stimulated RAW cells (ELISA); assay type: cell-based; conditions: 10 μM, 1 μg/ml LPS 15 min, FIG. 15

COC(=O)C(Cc1cc(OC)cc(OC)c1)c1ccc(Oc2ccc(CC3SC(=O)NC3=O)cc2)cc1 (stereo not shown) [Compound 18, 3-(3,5-Dimethoxyphenyl)-2-{4-[4-(2,4-dioxothiazolidin-5-ylmethyl)-phenoxy]-phenyl}-propionic acid methyl ester]
EC50 (Human PPAR-γ2): 57.7 µM
PPAR-gamma agonist potency in words (Human PPAR-γ2; in vitro transactivation assay): essentially inactive
glucose uptake activity in words (3T3-L1 adipocytes; 0.1 μM): devoid of activity
glucose uptake activity in words (3T3-L1 adipocytes; 1 μM): modest activity
% Glucose uptake 0.1 μm (3T3-L1 adipocytes): 104.4 ± 5.7 % basal of the non treated cells
% Glucose uptake 1.0 μm (3T3-L1 adipocytes): 137.0 ± 10.1 % basal of the non treated cells

COC(=O)/C(=C\c1cc(OC)cc(OC)c1)c1ccc(Oc2ccc(CC3SC(=O)NC3=O)cc2)cc1 (stereo not shown) [Compound 23, Z-3-(3,5-Dimethoxyphenyl)-2-{4-[4-(2,4-dioxothiazolidin-5-ylmethyl)-phenoxy]-phenyl}-acrylic acid methyl ester]
EC50 (Human PPAR-γ2): 3.69 ± 1.45 µM
PPAR-gamma transactivation potency relative to a comparator, in words (Human PPAR-γ2; in vitro transactivation assay): less than one-tenth the potency of compound 11
glucose uptake activity in words (3T3-L1 adipocytes; 1 μM): essentially inactive
% Glucose uptake 0.1 μm (3T3-L1 adipocytes): 89.5 ± 5.6 % basal of the non treated cells
% Glucose uptake 1.0 μm (3T3-L1 adipocytes): 118.0 ± 3.6 % basal of the non treated cells

Etanercept
less cancellous bone lost (AIA rats; AIA rats, treated vs vehicle): ~50%
C.Th (AIA rats; right proximal tibia): 198 ± 25 μm
Conn. Dens (AIA rats; right proximal tibia): 31.9 ± 19.7 l/mm3
SMI (0-3) (AIA rats; right proximal tibia): 2.8 ± 0.4
Tb.N (AIA rats; right proximal tibia): 2.8 ± 0.5 l/mm
BV/TV (AIA rats; right proximal tibia, compound 11 50 mg/kg oral, etanercept 1.67 mg/kg i.p., once daily): 12.9 ± 5.2%

Insulin: insulin, comparator in the 3T3-L1 glucose uptake test
% Glucose uptake 0.1 μm (3T3-L1 adipocytes): 335.2 ± 21.7 % basal of the non treated cells
% Glucose uptake 1.0 μm (3T3-L1 adipocytes): 345.6 ± 8.3 % basal of the non treated cells

CCCCC/C=C/C=C1/C(=O)C=C[C@@H]1C/C=C\CCCC(=O)O [Compound 15dPGJ2, 15-deoxy-Δ^12,14-prostaglandin J2]
inhibition of the activation of NF-kB (p65) (NF-kB p65): inhibited

COc1cc(C=C(C(=O)O)c2ccc(Oc3ccc(CC4SC(=O)NC4=O)cc3)cc2)cc(OC)c1 (stereo not shown) [Compound 14]
EC50 (Human PPAR-γ2): 0.69 ± 0.038 µM
PPAR-gamma agonist potency in words (Human PPAR-γ2; in vitro transactivation assay): reasonable potency
glucose uptake activity in words (3T3-L1 adipocytes; 1 μM): comparable to rosiglitazone
% Glucose uptake 0.1 μm (3T3-L1 adipocytes): 108.6 ± 19.9 % basal of the non treated cells
% Glucose uptake 1.0 μm (3T3-L1 adipocytes): 199.5 ± 11.6 % basal of the non treated cells

COC(=O)C(=Cc1cc(OC)cc(OC)c1)c1ccc(Oc2ccc(C=C3SC(=O)NC3=O)cc2)cc1 [Compound 10, 3-(3,5-Dimethoxyphenyl)-2-{4-[4-(2,4-dioxothiazolidin-5-ylidenemethyl)-phenoxy]-phenyl}-acrylic acid methyl ester]
EC50 (Human PPAR-γ2): 1.14 µM
PPAR-gamma agonist potency in words (Human PPAR-γ2; in vitro transactivation assay): reasonable potency
glucose uptake activity in words (3T3-L1 adipocytes; 0.1 μM): retained activity, but less than that of rosiglitazone
glucose uptake activity in words (3T3-L1 adipocytes; 1 μM): comparable to rosiglitazone
% Glucose uptake 0.1 μm (3T3-L1 adipocytes): 142.6 ± 7.4 % basal of the non treated cells
% Glucose uptake 1.0 μm (3T3-L1 adipocytes): 209.3 ± 22.6 % basal of the non treated cells

COC(=O)C(Cc1cc(OC)cc(OC)c1)c1ccc(Oc2ccc(C=C3SC(=O)NC3=O)cc2)cc1 (stereo not shown) [Compound 17, 3-(3,5-Dimethoxyphenyl)-2-{4-[4-(2,4-dioxothiazolidin-5-ylidenemethyl)-phenoxy]-phenyl}-propionic acid methyl ester]
EC50 (Human PPAR-γ2): 23.9 µM
PPAR-gamma agonist potency in words (Human PPAR-γ2; in vitro transactivation assay): essentially inactive
glucose uptake activity in words (3T3-L1 adipocytes; 0.1 μM): devoid of activity
glucose uptake activity in words (3T3-L1 adipocytes; 1 μM): modest activity
% Glucose uptake 0.1 μm (3T3-L1 adipocytes): 101.9 ± 6.8 % basal of the non treated cells
% Glucose uptake 1.0 μm (3T3-L1 adipocytes): 130.0 ± 27.0 % basal of the non treated cells
